In PubChem BioAssay AID1845197 (Molecular Pharmacology Branch, DTP, NCI, 2023):

Test system: 349418-098-R tumor spheroid viability
Assay: Anticancer human tumor 349418-098-R patient-derived lung adenocarcinoma cell line growth inhibition
Details: spheroids with HUVEC and MSC; for IC50: curve of first compound; for viability, T/C: stronger effect = lower value
How it was run: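 Single agents and combinations were tested on spheroids built from tumor cells plus HUVEC and hMSC, at half-log dilutions starting at or near clinical Cmax, else 10 microM; final DMSO 0.25% (v/v).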
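Note: spheroids exposed to compound for 7 days before measurement.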
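Throughout, for viability, T/C: percent of vehicle control viability with 100% = DMSO-treated spheroids.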

**Q.** What does the source list for CC1COCCN1c1cc(-c2ccnn2C)c2ccnc(-c3ccn[nH]3)c2n1 (stereo not given) + Cn1nnc2c(C(N)=O)ncn2c1=O?
**A.** IC50 (second compound 1 µM): 66.4 nM; IC50 (second compound 3.16 µM): 64 nM; IC50 (second compound 10 µM): 61.4 nM; IC50 (second compound 31.6 µM): 67.9 nM; IC50 (second compound 100 µM): 52.6 nM; viability, T/C (second compound 1 µM, first compound 0.0316 µM): 90.2%; viability, T/C (second compound 1 µM, first compound 0.1 µM): 27.8%; viability, T/C (second compound 1 µM, first compound 0.316 µM): 11.8%; viability, T/C (second compound 1 µM, first compound 1 µM): 11.1%; viability, T/C (second compound 1 µM, first compound 3.16 µM): 11.1%; viability, T/C (second compound 1 µM, first compound 10 µM): 10.9%; viability, T/C (second compound 3.16 µM, first compound 0.0316 µM): 90.5%; viability, T/C (second compound 3.16 µM, first compound 0.1 µM): 24.4%; viability, T/C (second compound 3.16 µM, first compound 0.316 µM): 12.5%; viability, T/C (second compound 3.16 µM, first compound 1 µM): 10.3%; viability, T/C (second compound 3.16 µM, first compound 3.16 µM): 11.1%; viability, T/C (second compound 3.16 µM, first compound 10 µM): 10.4%; viability, T/C (second compound 10 µM, first compound 0.0316 µM): 90.7%; viability, T/C (second compound 10 µM, first compound 0.1 µM): 20%; viability, T/C (second compound 10 µM, first compound 0.316 µM): 11.9%; viability, T/C (second compound 10 µM, first compound 1 µM): 9.88%; viability, T/C (second compound 10 µM, first compound 3.16 µM): 11.1%; viability, T/C (second compound 10 µM, first compound 10 µM): 9.65%; viability, T/C (second compound 31.6 µM, first compound 0.0316 µM): 91.9%; viability, T/C (second compound 31.6 µM, first compound 0.1 µM): 28.8%; viability, T/C (second compound 31.6 µM, first compound 0.316 µM): 10.5%; viability, T/C (second compound 31.6 µM, first compound 1 µM): 9.5%; viability, T/C (second compound 31.6 µM, first compound 3.16 µM): 11.8%; viability, T/C (second compound 31.6 µM, first compound 10 µM): 10.2%; viability, T/C (second compound 100 µM, first compound 0.0316 µM): 77.9%; viability, T/C (second compound 100 µM, first compound 0.1 µM): 14.8%; viability, T/C (second compound 100 µM, first compound 0.316 µM): 9.79%; viability, T/C (second compound 100 µM, first compound 1 µM): 9.43%; viability, T/C (second compound 100 µM, first compound 3.16 µM): 9.05%; viability, T/C (second compound 100 µM, first compound 10 µM): 9.14%
